Data set [1] deals with T1, clostripain (Hathewaya histolytica, UniProt P09870).
T1 construct: This protease is a heterodimer; purchased Worthington
In words: Effect of organic solvent on clostripain proteolytic activity (N-Bz-Phe-Val-Arg-p-nitroanilide substrate, photometric initial rates). In kind it is biochemical. The following applies: varying amounts of organic solvent, otherwise as Table III. As for the experimental part: A substrate solution (1 mL) of 2 mg N-Bz-Phe-Val-Arg-p-nitroanilide in 2.5 mM dithiothreitol, 1 mM calcium chloride, 50 mM Tricine buffer at pH 8.5 was incubated at room temperature with 10 μg of clostripain, in an aqueous solution containing 10% (v/v) of organic solvent. Initial rates were determined by photometric detection of the liberated […].
These reactions were repeated in the presence of varying amounts of organic solvent, and optimal concentrations for proteolytic activity were determined for propylene carbonate (10%), N,N-dimethylformamide (20%), trifluoroethanol (20%), and acetonitrile (20%).

For data set [2], the system named is GLP-1(7-36)Ala-Phe-Ala-Hse. In words: Amidation by other Arg-specific proteases. In kind it is biochemical. The following applies: 1 M ammonium hydroxide, pH 10 and 8.5 (cathepsin B also pH 5.5), enzyme:substrate 1:50 to 1:100. As for the experimental part:
GLP-1(7-36)Ala-Phe-Ala-Hse (SEQ ID NO:1) (between 0.5 and 2 mg/mL) was dissolved in 1 M ammonium hydroxide at pH 10 and 8.5 and incubated individually with six different proteolytic enzymes, five of which have a specificity to cleave peptides at the carboxyl peptide bond of arginine residues, similar to that of clostripain. These included trypsin, thrombin, cathepsin B (also tested at pH 5.5), coagulation factor Xa, plasmin and papain. Papain is a thiol protease, albeit one which is not specific to arginyl bonds. […] Enzyme:substrate ratios were between 1:50 to 1:100 and protease specific additives were added where appropriate (e.g., calcium chloride).

Data set [3] deals with T1, clostripain. In words: Inhibition of clostripain amidation activity by organic solvent (GLP-1(7-36)Ala-Phe-Ala-Hse substrate, HPLC). It counts as biochemical. The following applies: 2 M ammonium acetate, pH 10.4, 45° C., maximal attained amidation level. As for the experimental part: Maximal attained amidation level in the presence of various organic solvents was determined with GLP-1(7-36)Ala-Phe-Ala-Hse (SEQ ID NO:1; 2 mg/mL) in 2.5 mM DTT, 1 mM calcium chloride, 2 M ammonium acetate, pH 10.4, at 45° C., with 20 μg clostripain in a 1 mL reaction. Aliquots of the reaction mixture were removed at regular time intervals, quenched with acetic acid and assayed by HPLC analysis on a reverse phase HPLC column.

The format of data set [4] is physicochemical.

Regarding `CN(C)C=O` [Dimethylformamide, N,N-dimethylformamide], in data set [1], the “optimal concentration for proteolytic activity” value (shortened to “optimal concentration”) is reported as 20%.

Turning to trypsin, in data set [2], the “production of GLP-1(7-36)NH2 (reversed phase chromatography)” value (“production of GLP-1(7-36)NH2” for short) is “None of these proteases produced any GLP-1(7-36)NH2”.

In the case of `CC#N` [Acetonitrile], the “optimal concentration” value in data set [1] is 20%. In addition, in data set [3] (20% organic solvent), the “Extent of amidation (% of substrate converted)” value is reported as 18%.

For `CC1COC(=O)O1` (centres unmarked) [Propylene carbonate], the “optimal concentration” value in data set [1] came to 10%. For the same molecule, the “Extent of amidation (% of substrate converted)” value in data set [3] (10% organic solvent) stood at 29%.

For “His-Ala-Glu-Gly-Thr-Phe-Thr-Ser-Asp- Val-Ser-Ser-Tyr-Leu-Glu-Gly-Gln-Ala-Ala-Lys-Glu-Phe-Ile-Ala-Trp-Leu- Val-Lys-Gly-Arg-NH2 [GLP-1(7-36)NH2]”, the “formation of D-contaminants” value in data set [4] (in water, pH about 4 to 8.4, −20° C. to 45° C., similar period of time) is “essentially no formation of D-contaminants”. Besides, the degradation in data set [4] (pH 9.4) is listed as 9%. Also, the “degradation into D-contaminants” value in data set [4] (pH 10.5) is “a substantial amount of the peptide was degraded into D-contaminants”.

For the molecule thrombin, the “production of GLP-1(7-36)NH2” value in data set [2] was “None of these proteases produced any GLP-1(7-36)NH2”.

Regarding `OCC(F)(F)F` [Trifluoroethanol], the “Extent of amidation (% of substrate converted)” value in data set [3] (20% organic solvent) came out at 9%.

B1: plasmin: proteolytic enzyme cleaving at the carboxyl peptide bond of arginine residues (protein, UniProt P00747 20-580; P00747 581-810, looked up)
Plasmin heavy chain A: EPLDDYVNTQGASLFSVTKKQLGAGSIEECAAKCEEDEEFTCRAFQYHSKEQQCVIMAENRKSSIIIRMRDVVLFEKKVYLSECKTGNGKNYRGTMSKTKNGITCQKWSSTSPHRPRFSPATHPSEGLEENYCRNPDNDPQGPWCYTTDPEKRYDYCDILECEEECMHCSGENYDGKISKTMSGLECQAWDSQSPHAHGYIPSKFPNKNLKKNYCRNPDRELRPWCFTTDPNKRWELCDIPRCTTPPPSSGPTYQCLKGTGENYRGNVAVTVSGHTCQHWSAQTPHTHNRTPENFPCKNLDENYCRNPDGKRAPWCHTTNSQVRWEYCKIPSCDSSPVSTEQLAPTAPPELTPVVQDCYHGDGQSYRGTSSTTTTGKKCQSWSSMTPHRHQKTPENYPNAGLTMNYCRNPDADKGPWCFTTDPSVRWEYCNLKKCSGTEASVVAPPPVVLLPDVETPSEEDCMFGNGKGYRGKRATTVTGTPCQDWAAQEPHRHSIFTPETNPRAGLEKNYCRNPDGDVGGPWCYTTNPRKLYDYCDVPQCAAPSFDCGKPQVEPKKCPGR
Plasmin light chain B: VVGGCVAHPHSWPWQVSLRTRFGMHFCGGTLISPEWVLTAAHCLEKSPRPSSYKVILGAHQEVNLEPHVQEIEVSRLFLEPTRKDIALLKLSSPAVITDKVIPACLPSPNYVVADRTECFITGWGETQGTFGAGLLKEAQLPVIENKVCNRYEFLNGRVQSTELCAGHLAGGTDSCQGDSGGPLVCFEKDKYILQGVTSWGLGCARPNKPGVYVRVSRFVTWIEGVMRNN
modifications: Plasmin
notes: proteolytic enzyme cleaving at the carboxyl peptide bond of arginine residues
B1: the “production of GLP-1(7-36)NH2” value in data set [2] is reported as “None of these proteases produced any GLP-1(7-36)NH2”.

B2: clostripain: extracellular thiol endoprotease from Clostridia, high specificity for Arg-Xaa peptide linkages (protein, UniProt P09870 51-181; P09870 191-526, looked up)
Clostripain light chain: NKNQKVTIMYYCDADNNLEGSLLNDIEEMKTGYKDSPNLNLIALVDRSPRYSSDEKVLGEDFSDTRLYKIEHNKANRLDGKNEFPEISTTSKYEANMGDPEVLKKFIDYCKSNYEADKYVLIMANHGGGAR
Clostripain heavy chain: AICWDDSNLDKNGEADCLYMGEISDHLTEKQSVDLLAFDACLMGTAEVAYQYRPGNGGFSADTLVASSPVVWGPGFKYDKIFDRIKAGGGTNNEDDLTLGGKEQNFDPATITNEQLGALFVEEQRDSTHANGRYDQHLSFYDLKKAESVKRAIDNLAVNLSNENKKSEIEKLRGSGIHTDLMHYFDEYSEGEWVEYPYFDVYDLCEKINKSENFSSKTKDLASNAMNKLNEMIVYSFGDPSNNFKEGKNGLSIFLPNGDKKYSTYYTSTKIPHWTMQSWYNSIDTVKYGLNPYGKLSWCKDGQDPEINKVGNWFELLDSWFDKTNDVTGGVNHYQW
On to B2, for which the “production of GLP-1(7-36)NH2” value in data set [2] is “produced measureable GLP-1(7-36)NH2”.

B3: papain: thiol protease which is not specific to arginyl bonds (protein, UniProt P00784 134-345, looked up)
Papain: IPEYVDWRQKGAVTPVKNQGSCGSCWAFSAVVTIEGIIKIRTGNLNEYSEQELLDCDRRSYGCNGGYPWSALQLVAQYGIHYRNTYPYEGVQRYCRSREKGPYAAKTDGVRQVQPYNEGALLYSIANQPVSVVLEAAGKDFQLYRGGIFVGPCGNKVDHAVAAVGYGPNYILIKNSWGTGWGENGYIRIKRGTGNSYGVCGLYTSSFYPVKN
Take B3: in data set [2], the “production of GLP-1(7-36)NH2” value is “None of these proteases produced any GLP-1(7-36)NH2”.

For the origin of these results see patent US6461834B1, “Clostripain catalyzed amidation of peptides” (Bionebraska, Inc., priority 1998, dated 2002).
